In patent US11331369B2, “Endoparasitic depsipeptides” (Zoetis Services LLC, priority 2017, dated 2022):

Legend:
[1] = tested on: microfilariae of Dirofilaria immitis; experiment: Dirofilaria immitis, Microfilaria (DiMF) In vitro Assay; format: cell-based; details: 72 h, read-out: DiMF Minimum Effective Dose (MED), approximately 72 hours incubation, microfilariae assessed for survival or paralysis
[2] = tested on: 4th stage larvae (L4) of Dirofilaria immitis; experiment: Dirofilaria immitis, L4 Stage (DiL4) In Vitro Assay; format: cell-based; details: Dirofilaria immitis, 72 h, read-out: DiL4 Minimum Effective Dose (MED), approximately 72 hours incubation; L4 larvae assessed for survival or paralysis

SMILES	minimal effective concentration [1]	minimal effective concentration [2]
CC(C)C[C@H]1C(=O)O[C@H](Cc2ccc(Cn3cc(Oc4nccs4)cn3)cc2)C(=O)N(C)[C@@H](CC(C)C)C(=O)O[C@H](C)C(=O)N(C)[C@@H](CC(C)C)C(=O)O[C@H](Cc2ccc(Cn3cc(Oc4nccs4)cn3)cc2)C(=O)N(C)[C@@H](CC(C)C)C(=O)O[C@H](C)C(=O)N1C [Example 1b-174, (3S,6R,9S,12R,15S,18R,21S,24R)-3,9,15,21-tetraisobutyl-4,6,10,16,18,22-hexamethyl-12,24-bis(4-((4-(thiazol-2-yloxy)-1H-pyrazol-1-yl)methyl)benzyl)-1,7,13,19-tetraoxa-4,10,16,22-tetraazacyclotetracosan-2,5,8,11,14,17,20,23-octaone]	0.001 to 0.01 µM	0.001 to 0.01 µM
CC(C)C[C@H]1C(=O)O[C@H](Cc2ccc(Cn3cc(Oc4ccccn4)cn3)cc2)C(=O)N(C)[C@@H](CC(C)C)C(=O)O[C@H](C)C(=O)N(C)[C@@H](CC(C)C)C(=O)O[C@H](Cc2ccc(Cn3cc(Oc4ccccn4)cn3)cc2)C(=O)N(C)[C@@H](CC(C)C)C(=O)O[C@H](C)C(=O)N1C [Example 1b-175, (3S,6R,9S,12R,15S,18R,21S,24R)-3,9,15,21-tetraisobutyl-4,6,10,16,18,22-hexamethyl-12,24-bis(4-((4-(pyridin-2-yloxy)-1H-pyrazol-1-yl)methyl)benzyl)-1,7,13,19-tetraoxa-4,10,16,22-tetraazacyclotetracosan-2,5,8,11,14,17,20,23-octaone]	0.001 to 0.01 µM	0.001 to 0.01 µM
Cc1cc(C2CC2)n(Cc2ccc(C[C@H]3OC(=O)[C@H](CC(C)C)N(C)C(=O)[C@@H](C)OC(=O)[C@H](CC(C)C)N(C)C(=O)[C@@H](Cc4ccc(Cn5nc(C)cc5C5CC5)cc4)OC(=O)[C@H](CC(C)C)N(C)C(=O)[C@@H](C)OC(=O)[C@H](CC(C)C)N(C)C3=O)cc2)n1 [Example 1b-181, (3S,6R,9S,12R,15S,18R,21S,24R)-6,18-bis(4-((5-cyclopropyl-3-methyl-1H-pyrazol-1-yl)methyl)benzyl)-3,9,15,21-tetraisobutyl-4,10,12,16,22,24-hexamethyl-1,7,13,19-tetraoxa-4,10,16,22-tetraazacyclotetracosan-2,5,8,11,14,17,20,23-octaone]	0.01 to 0.1 µM	0.001 to 0.01 µM
CC(C)C[C@H]1C(=O)O[C@H](Cc2ccc(Cn3cc(COC(C)C)cn3)cc2)C(=O)N(C)[C@@H](CC(C)C)C(=O)O[C@H](C)C(=O)N(C)[C@@H](CC(C)C)C(=O)O[C@H](Cc2ccc(Cn3cc(COC(C)C)cn3)cc2)C(=O)N(C)[C@@H](CC(C)C)C(=O)O[C@H](C)C(=O)N1C [Example 1b-184, (3S,6R,9S,12R,15S,18R,21S,24R)-3,9,15,21-tetraisobutyl-6,18-bis(4-((4-(isopropoxymethyl)-1H-pyrazol-1-yl)methyl)benzyl)-4,10,12,16,22,24-hexamethyl-1,7,13,19-tetraoxa-4,10,16,22-tetraazacyclotetracosan-2,5,8,11,14,17,20,23-octaone]	0.001 to 0.01 µM	0.001 to 0.01 µM
CCCc1ccnn1Cc1ccc(C[C@H]2OC(=O)[C@H](CC(C)C)N(C)C(=O)[C@@H](C)OC(=O)[C@H](CC(C)C)N(C)C(=O)[C@@H](Cc3ccc(Cn4nccc4CCC)cc3)OC(=O)[C@H](CC(C)C)N(C)C(=O)[C@@H](C)OC(=O)[C@H](CC(C)C)N(C)C2=O)cc1 [Example 1b-205, (3S,6R,9S,12R,15S,18R,21S,24R)-3,9,15,21-tetraisobutyl-4,6,10,16,18,22-hexamethyl-12,24-bis(4-((5-propyl-1H-pyrazol-1-yl)methyl)benzyl)-1,7,13,19-tetraoxa-4,10,16,22-tetraazacyclotetracosan-2,5,8,11,14,17,20,23-octaone]	0.001 to 0.01 µM	0.0001 to 0.001 µM
